According to paper PMC9693223 (Molecules, 2022):

Experiments:
[1] = test system: L. mexicana Cas9^ΔNT1 promastigotes; assay: Alamar blue drug sensitivity assay, L. mexicana Cas9^ΔNT1 promastigotes; format: cell-based, Leishmania mexicana; conditions: EC50 Cas9^ΔNT1 relative to L. mexicana Cas9
Text: We used L. mexicana promastigotes of the Cas9 strain developed by Beneke at al. to generate the ΔNT1 strain, and from there the Cas9^ΔNT1+TcrNT2 (see below); The original Cas9 strain was generously donated by Prof. Eva Gluenz (University of Bern, Switzerland). All strains in standard HOMEM (GIBCO, Life Technologies, Paisley, UK) supplemented with 10% heat-inactivated fetal bovine serum (FBS; PAA Laboratories, Linz, Austria) and 1% of a penicillin–streptomycin solution (10,000 U mL^−1 each; Life Technologies) at 25 °C, as described.
The Alamar blue assay (resazurin sodium salt) was used to determine the drug sensitivity of the L. mexicana promastigotes in vitro. The assay is based on the reduction of resazurin sodium salt (blue and non-fluorescent) to resorufin (pink color and fluorescent) by live cells. HOMEM medium with 10% FBS (100 μL) was added to all wells of a white 96-well plate apart from the first well. 200 μL of a known concentration of test compounds was diluted in HOMEM medium and placed in the first well. Compounds were tested in one plate and every compound was diluted over two rows (23 concentrations), leaving the last well of every dilution as a negative control having 100 μL HOMEM medium. Next, 100 μL of L. mexicana culture at a density of 2 × 10^6 cells mL^−1 was added into every well in the plate and incubated for 72 h at a temperature of 25 °C after which resazurin sodium salt (Sigma) (20 μL of a solution of 12.5 mg in 100 mL PBS) was added and the plate was incubated under the same conditions for a further 48 h. Fluorescence was measured in a FLUOstar OPTIMA plate reader (BMG Labtech, Germany), at a wavelength of 544 nm for excitation and 620 nm for emission. The EC50 values and fluorescence data were determined and plotted by the GraphPad Prism 8 Software using an equation for a sigmoid curve with variable slope. Pentamidine was used as positive control and every experiment was performed 3–4 times independently.

[2] = test system: T. cruzi epimastigotes (CL Brener strain); assay: In vitro inhibition of proliferation of T. cruzi epimastigotes; format: cell-based, Trypanosoma cruzi; conditions: Trypanosoma cruzi; cell densities at the 5th day of proliferation, four independent experiments
Experimental: (§1) Trypomastigotes were obtained by infecting CHO-K1 cells. CHO-K1 cells were cultivated in RPMI-1640 medium supplemented with 10% heat-inactivated fetal calf serum (FCS), 0.15% (w/v) […], 100 µg mL^−1 penicillin and 130 µg mL^−1 streptomycin and incubated at 37 °C in a humidified atmosphere containing 5% CO2. CHO-K1 cells were initially incubated with metacyclic trypomastigotes obtained by in vitro differentiation of epimastigotes as previously described (multiplicity of infection: 50 parasites per cell) for 4 h. After washing out the non-internalized parasites, the cells were incubated overnight in RPMI medium supplemented with 10% FCS at 37 °C and then maintained at 33 °C in a humidified atmosphere containing 5% CO2 as previously reported. Infected cells were maintained at 33 °C in the presence of 10% FCS. Infected cell-derived trypomastigotes started to burst into the culture medium at the 5th day post-infection. Trypomastigotes collected at day 5 or 6 post infection were used for the viability assays.
The density of exponentially proliferating epimastigotes for each assay was adjusted to 2.0 × 10^6 parasites mL^−1, transferred into 96-well plates (200 μL/well) and incubated with different concentrations of the compounds 5-F-2′-deoxyuridine, 5-F-uracil, 5-F-uridine or benznidazole. A combination of 60 μM rotenone and 0.5 μM antimycin (RA) was used as a positive control for proliferation inhibition (positive control), as previously described. […] The epimastigote proliferation was measured as previously reported, by reading the optical density (OD) at 620 nm every 24 h for 9 days (which collects readings through the exponential and stationary phases). […] The half-maximal inhibitory concentrations (IC50) were determined during the exponential growth phase (fifth day) by adjusting a sigmoidal dose-response function to experimentally obtained data using GraphPad Prism 8. The compounds were assessed in quadruplicate in each experiment, and the results correspond to four independent experiments.

[3] = test system: T. cruzi trypomastigotes; assay: Effect on cell derived trypomastigotes (percent motile parasites); format: cell-based; conditions: Trypanosoma cruzi, 24 h incubation, percent of motile parasites
Experimental: as §1
To measure the effect of compounds, cell derived trypomastigotes were collected from the extracellular medium at the fifth or sixth day after infection and counted in a Neubauer chamber. […] After incubation the trypanocidal effect was assessed by counting the percent of motile parasites in a Neubauer chamber. […]

O=c1[nH]c(=O)n([C@H]2C[C@H](O)[C@@H](CO)O2)cc1F [5-F-2′-dUrd, 5-F-2′-deoxyuridine]
RF vs. Cas9 (resistance factor) [1]: 26.6
IC50 [2]: 16.8 ± 0.01 µM
inhibition at 31 µM [3]: ~30%
